Experimental data taken from ChEMBL document CHEMBL1201862, “PubChem BioAssay data set” (2004).
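96-well plates; 48 h exposure; 5 concentrations. Endpoints by linear interpolation between flanking doses. Not reached: highest tested concentration assigned. The concentration for 50% growth inhibition is given as GI50.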 Activity calls are given as the source filed them. No stated cut-off is given here; in the data, active = GI50 up to about 1.1 µM and inactive = higher.

What was measured:
Assay in all cases: NCI-60 cell line screen, 48 h
SNB-75 = system: SNB-75
RPMI-8226 = system: RPMI-8226
HOP-62 = system: HOP-62
EKVX = system: EKVX
TK-10 = system: TK-10
SR = system: SR
DU-145 = system: DU-145
M14 = system: M14
OVCAR-5 = system: OVCAR-5
MDA-MB-435 = system: MDA-MB-435
HT-29 = system: HT-29
CCRF-CEM = system: CCRF-CEM
OVCAR-4 = system: OVCAR-4
PC-3 = system: PC-3
MCF7 = system: MCF7
NCI-H522 = system: NCI-H522
NCI/ADR-RES = system: NCI/ADR-RES
LOX IMVI = system: LOX IMVI
IGROV-1 = system: IGROV-1

Structure (SMILES) | GI50 (SNB-75) | GI50 (RPMI-8226) | GI50 (HOP-62) | GI50 (EKVX) | GI50 (TK-10) | GI50 (SR) | GI50 (DU-145) | GI50 (M14) | GI50 (OVCAR-5) | GI50 (MDA-MB-435) | GI50 (HT-29) | GI50 (CCRF-CEM) | GI50 (OVCAR-4) | GI50 (PC-3) | GI50 (MCF7) | GI50 (NCI-H522) | GI50 (NCI/ADR-RES) | GI50 (LOX IMVI) | GI50 (IGROV-1)
COc1cc(C2c3cc4c(cc3OC(N3CCOCC3)C2C)OCO4)ccc1O (stereo not given) | 7.64 µM (inactive) | 4.22 µM (inactive) | 11.7 µM (inactive) | 36.1 µM (inactive) | 36.5 µM (inactive) | 5.66 µM (inactive) | 28.7 µM (inactive) | 6.34 µM (inactive) | > 76.2 µM (inactive) | 2.81 µM (inactive) | 23.4 µM (inactive) | 8.67 µM (inactive) | 50.9 µM (inactive) | 7.28 µM (inactive) | 5.98 µM (inactive) | 8.15 µM (inactive) | 5.96 µM (inactive) | 11.8 µM (inactive) | 16.4 µM (inactive)
CSC1=C(C(=O)Nc2ccccc2)C(N)=NC1=O | > 100 µM (inactive) | > 100 µM (inactive) |  | 77.1 µM (inactive) | > 100 µM (inactive) | 32.4 µM (inactive) | > 100 µM (inactive) |  |  | > 100 µM (inactive) | > 100 µM (inactive) | > 100 µM (inactive) | > 100 µM (inactive) | > 100 µM (inactive) | 89.7 µM (inactive) | 11.3 µM (inactive) | > 100 µM (inactive) | > 100 µM (inactive) | 
CCOP(=O)(OCC)/C(C#N)=C/c1c(C)[nH]c2ccccc12 | > 100 µM (inactive) | > 100 µM (inactive) | > 100 µM (inactive) | > 100 µM (inactive) | > 100 µM (inactive) | > 100 µM (inactive) | > 100 µM (inactive) | > 100 µM (inactive) | > 100 µM (inactive) | > 100 µM (inactive) | > 100 µM (inactive) | > 100 µM (inactive) | > 100 µM (inactive) | > 100 µM (inactive) | > 100 µM (inactive) | > 100 µM (inactive) | > 100 µM (inactive) | > 100 µM (inactive) | > 100 µM (inactive)
CC(C)(C)c1cc(C2NC(=O)NC2=O)cc(C(C)(C)C)c1O (stereo not given) | 29.4 µM (inactive) | 66.5 µM (inactive) | > 100 µM (inactive) | > 100 µM (inactive) | 29 µM (inactive) | 28.8 µM (inactive) | > 100 µM (inactive) | > 100 µM (inactive) | > 100 µM (inactive) | 31 µM (inactive) | 46.5 µM (inactive) | 26.1 µM (inactive) | > 100 µM (inactive) | 71.9 µM (inactive) | 24.7 µM (inactive) | 32.8 µM (inactive) | > 100 µM (inactive) | > 100 µM (inactive) | > 100 µM (inactive)
C=CC(=O)N1C/C(=C\c2ccc(Cl)cc2)C(=O)/C(=C/c2ccc(Cl)cc2)C1 | 0.405 µM (active) | 0.0263 µM (active) | 0.317 µM (active) | 0.885 µM (active) | 1.39 µM (inactive) | 0.05 µM (active) | 0.813 µM (active) | 0.255 µM (active) | 0.641 µM (active) | 0.262 µM (active) | 0.0989 µM (active) | 0.175 µM (active) | 0.286 µM (active) | 0.255 µM (active) | 0.151 µM (active) | 0.514 µM (active) | 0.436 µM (active) | 0.124 µM (active) | 0.353 µM (active)
O=C(N/N=C\c1c(O)ccc2ccccc12)c1ccncc1 | 2.75 µM (inactive) | 0.364 µM (active) | 1.31 µM (inactive) |  | > 7.23 µM (inactive) | 0.558 µM (active) | 2.88 µM (inactive) | 0.474 µM (active) | > 6.85 µM (inactive) | 1.65 µM (inactive) | 1.7 µM (inactive) | 0.0887 µM (active) | 0.237 µM (active) | 0.752 µM (active) | 3.09 µM (inactive) | 0.638 µM (active) | 0.562 µM (active) | 0.301 µM (active) | 0.148 µM (active)
N#C/C(=C/n1c(=S)[nH]c2ccccc21)C(N)=O | > 100 µM (inactive) | > 100 µM (inactive) | > 100 µM (inactive) | > 100 µM (inactive) |  | > 100 µM (inactive) | > 100 µM (inactive) | > 100 µM (inactive) | > 100 µM (inactive) | > 100 µM (inactive) | > 100 µM (inactive) | > 100 µM (inactive) | > 100 µM (inactive) | > 100 µM (inactive) | > 100 µM (inactive) | > 100 µM (inactive) | > 100 µM (inactive) | > 100 µM (inactive) | > 100 µM (inactive)
O=c1[nH]c(=O)n(C2CC(O)C(CO)O2)c2nc3ccc4ccccc4c3nc12 (stereo not given) | 52.8 µM (inactive) | 22.8 µM (inactive) | 32.4 µM (inactive) | 72.4 µM (inactive) | > 100 µM (inactive) | 24.9 µM (inactive) | > 100 µM (inactive) | > 100 µM (inactive) | > 100 µM (inactive) | > 100 µM (inactive) |  | 34.2 µM (inactive) | 67.9 µM (inactive) | 73.8 µM (inactive) | 46.3 µM (inactive) | 45.6 µM (inactive) | > 100 µM (inactive) | 35.4 µM (inactive) | 47.4 µM (inactive)
